test system: HT-29 cells; assay: HT29 Cells 0FBS Assay In Vitro (TNF-α/SMAC mimetic/zVAD-FMK induced necroptosis, CellTiter-Glo cell viability); assay type: cell-based; details: Homo sapiens; HT-29 cells, FBS free medium, TNF-α (10 ng/ml), SMAC mimetic (6 uM), zVAD-FMK (10 μM), 20 hours; geometric mean EC50; read-out: Cell activity (EC50) of Compounds 1-116
Description: Protocol for HT29 Cells 0FBS Assay In Vitro
• Cell line: HT-29 (ATCC® HTB-38™) • Culture medium: McCOY's 5 A, Gibco, Cat No. 16600-082 • FBS, Gibco, Cat No. 10099-141C • Trypsin: Gibco, Cat No. 25200-056 • DMSO: Sigma, Cat No. 67-68-5, 1 L • Assay plate: Corning #3903 • Compound dilution plate: Corning #3357 • Inducers: TNFα, GenScript, Cat No. ZO1001-50, • SmacM, Cat. No., HY-15989, MedChemExpress (MCE) • Z_VAD FMK, TargetMol, T6013 • Cell Titer-Glo® Luminescent Cell Viability Assay Kit: Promega, Cat No. G7573 • EnVision: PerkinElmer, 2105-0010 2. Cell Seeding of HT-29 Cells • 1) HT-29 cells were checked every day to make sure they are healthy and growing as expected. They were split sub-culturing when were approximately 80% confluent. • 2) First pre-warm the culture medium of McCOY's 5 A medium (Gibco, Cat No. 16600-082) with 10% FBS (Gibco, Cat No. 10099-141C) in 37° C. water bath for at least 30 min. • 3) Growing cells to desired level of confluency 80% in a T75 flask, aspirate the medium, and wash with warm PBS two times. • 4) Add 2-3 ml fresh warm trypsin (Gibco, Cat No. 25200-056) solution. Transfer the flask to a 37° C. incubator. • 5) After 5 minutes, tap the side of the flask, and examine the flask under a microscope for lifting. If necessary, return the cells to the incubator for an additional 5-10 minutes, with occasional tapping, until lifting is complete. • 6) Quickly neutralize the trypsin reaction by adding 6-9 ml cell culture medium, then transfer the cells to sterile 15 ml conical tubes. Pellet the cells by centrifugation at 300×g for 7 minutes, then decant the supernatant. • 7) Resuspend the cells in fresh cell culture medium. Do cell counting with hemocytometer. • 8) Seed 100 μl of 5,000 cells into each well of the sterile 96-well cell culture plate (Corning 3903) and culture overnight at 37° C. with 5% C02. 3. Compounds Titration and Treatment of HT-29 Cells • 1) All batches of compounds (CPDs) (e.g., compound 1-281) were dissolved in DMSO (Dimethyl sulfoxide) as 20 mM stock solution. • 2) Take 3 ul 20 mM stock solution of CPDs to 27 ul DMSO and mix well, continue the titration ratio of 1:3 (20 ul CPDs+40 ul DMSO), e.g., to give solutions of CPDS at 6.6 mM, 2.2 mM, etc., till the 10 points end. • 3) Take out assay plates with HT-29 cells from incubator, remove all culture medium then wash 1 time with 1×PBS, and change fresh McCOY's 5 A medium of FBS free with a cocktail of TNF-α (10 ng/ml), the SMAC mimetic (6 uM) and zVAD-FMK (10 μM) to stimulate the HT-29 cells to increase pRIPK1 levels and necroptosis. • 4) Add 0.5 μL of the diluted compound to the corresponding 96-well assay plates. • 5) Incubate the assay plates for 20 hours at 37° C. with 5% C02. 4. Performing Cell Viability Detection of HT-29 Cells after Treated with Compounds • 1) The CellTiter-Glo® Luminescent Cell Viability Assay was employed to detect the ATP levels of viable HT-29 cells. • 2) Equilibrate the CellTiter-Glo® buffer and the lyophilized substrate to room temperature prior to use. • 3) Resuspend the CellTiter-Glo® substrate with CellTiter-Glo® buffer, mix by gently vortexing to obtain a homogeneous solution. • 4) Pipette 20 μl the enzyme/substrate mixture by multi-channel pipette into the 96-well assay plates from step 5) under the Compounds titration and treatment stage. • 5) Place the plates on an orbital shaker and mix the contents for 3 minutes to induce cell lysis. • 6) Then allow the plates to incubate at room temperature for 10 minutes to stabilize luminescent signal. • 7) Read and record luminescence signal with EnVision. • 8) The geometric mean EC50 of the compounds were calculated from points response dose with duplicate. In Tables 2 and 4, activity is provided as follows: +++=0.1 nM≤EC50<100 nM; ++=100 nM≤EC50<1000 nM; +=1000 nM≤EC50<10000 nM.

| Structure (SMILES) | EC50 [nM] |
| --- | --- |
| COCCn1nc(C)c(-c2cc(OC3CN(C(=O)N4N=CC[C@H]4c4cc(F)cc(F)c4)C3)c(F)cn2)c1C [compound 93, (S)-(5-(3,5-difluorophenyl)-4,5-dihydro-1H-pyrazol-1-yl)(3-((5-fluoro-2-(1-(2-methoxyethyl)-3,5-dimethyl-1H-pyrazol-4-yl)pyridin-4-yl)oxy)azetidin-1-yl)methanone] | 0.1 to 100 |
| CNc1cnn(C)c1-c1cc(OC2CN(C(=O)N3N=CC[C@H]3c3cc(F)cc(F)c3)C2)c(F)cn1 [compound 54, (S)-(5-(3,5-difluorophenyl)-4,5-dihydro-1H-pyrazol-1-yl)(3-((5-fluoro-2-(1-methyl-4-(methylamino)-1H-pyrazol-5-yl)pyridin-4-yl)oxy)azetidin-1-yl)methanone] | 0.1 to 100 |
| Cc1ncn(C)c1-c1ccc(F)c(OC2CN(C(=O)N3N=CC[C@H]3c3cc(F)cc(F)c3)C2)n1 [compound 44, (S)-(5-(3,5-difluorophenyl)-4,5-dihydro-1H-pyrazol-1-yl)(3-((6-(1,4-dimethyl-1H-imidazol-5-yl)-3-fluoropyridin-2-yl)oxy)azetidin-1-yl)methanone] | 0.1 to 100 |
| Cc1cn(C)c(-c2cc(OC3CN(C(=O)N4N=CC[C@H]4c4cc(F)cc(F)c4)C3)c(F)cn2)n1 [compound 40, (S)-(5-(3,5-difluorophenyl)-4,5-dihydro-1H-pyrazol-1-yl)(3-((2-(1,4-dimethyl-1H-imidazol-2-yl)-5-fluoropyridin-4-yl)oxy)azetidin-1-yl)methanone] | 0.1 to 100 |
| Cn1ncc(Cl)c1-c1ncc(F)c(OC2CN(C(=O)N3N=CC[C@H]3c3cc(F)cc(F)c3)C2)n1 [compound 84, (S)-(3-((2-(4-chloro-1-methyl-1H-pyrazol-5-yl)-5-fluoropyrimidin-4-yl)oxy)azetidin-1-yl)(5-(3,5-difluorophenyl)-4,5-dihydro-1H-pyrazol-1-yl)methanone] | 0.1 to 100 |
| Cn1ncc(C(=O)N2CCC2)c1-c1cc(OC2CN(C(=O)N3N=CC[C@H]3c3cc(F)cc(F)c3)C2)c(F)cn1 [compound 72, (S)-azetidin-1-yl(5-(4-((1-(5-(3,5-difluorophenyl)-4,5-dihydro-1H-pyrazole-1-carbonyl)azetidin-3-yl)oxy)-5-fluoropyridin-2-yl)-1-methyl-1H-pyrazol-4-yl)methanone] | 100 to 1000 |
| Cc1nn(CC(N)=O)c(C)c1-c1ncc(F)c(OC2CN(C(=O)N3N=CC[C@H]3c3cc(F)cc(F)c3)C2)n1 [compound 99, (S)-2-(4-(4-((1-(5-(3,5-difluorophenyl)-4,5-dihydro-1H-pyrazole-1-carbonyl)azetidin-3-yl)oxy)-5-fluoropyrimidin-2-yl)-3,5-dimethyl-1H-pyrazol-1-yl)acetamide] | 0.1 to 100 |
| COC(=O)c1cnn(C)c1-c1cc(OC2CN(C(=O)N3N=CC[C@H]3c3cc(F)cc(F)c3)C2)c(F)cn1 [compound 64, methyl (S)-5-(4-((1-(5-(3,5-difluorophenyl)-4,5-dihydro-1H-pyrazole-1-carbonyl)azetidin-3-yl)oxy)-5-fluoropyridin-2-yl)-1-methyl-1H-pyrazole-4-carboxylate] | 0.1 to 100 |

same assay, conditions: Homo sapiens; HT-29 cells, FBS free medium, TNF-α (10 ng/ml), SMAC mimetic (6 uM), zVAD-FMK (10 μM), 20 hours; geometric mean EC50; read-out: Cell activity (EC50) of Compounds 117-281

| Structure (SMILES) | EC50 [nM] |
| --- | --- |
| O=C(N1CC(Oc2cc(-c3ccn[nH]3)ncc2F)C1)N1N=CC[C@H]1c1cc(F)cc(F)c1 [compound 261, (S)-(5-(3,5-difluorophenyl)-4,5-dihydro-1H-pyrazol-1-yl)(3-((5-fluoro-2-(1H-pyrazol-5-yl)pyridin-4-yl)oxy)azetidin-1-yl)methanone] | 0.1 to 100 |
| Cc1c(-c2cc(OC3CN(C(=O)N4N=CC[C@H]4c4cc(F)cc(F)c4)C3)c(F)cn2)nn(C)c1C(=O)O [compound 245, (S)-3-(4-((1-(5-(3,5-difluorophenyl)-4,5-dihydro-1H-pyrazole-1-carbonyl)azetidin-3-yl)oxy)-5-fluoropyridin-2-yl)-1,4-dimethyl-1H-pyrazole-5-carboxylic acid] | 0.1 to 100 |
| Cn1nccc1-c1cc(OC2CN(C(=O)N3N=CCC3c3cc(F)cc(F)c3)C2)c(F)cn1 (centres unmarked) [compound 250, (5-(3,5-difluorophenyl)-4,5-dihydro-1H-pyrazol-1-yl)(3-((5-fluoro-2-(1-methyl-1H-pyrazol-5-yl)pyridin-4-yl)oxy)azetidin-1-yl)methanone] | 0.1 to 100 |
| Cc1nn(-c2cc(OC3CN(C(=O)N4N=CC[C@H]4c4cc(F)cc(F)c4)C3)c(F)cn2)c(C)c1CC(=O)N1CCOCC1 [compound 224, (S)-2-(1-(4-((1-(5-(3,5-difluorophenyl)-4,5-dihydro-1H-pyrazole-1-carbonyl)azetidin-3-yl)oxy)-5-fluoropyridin-2-yl)-3,5-dimethyl-1H-pyrazol-4-yl)-1-morpholinoethan-1-one] | 0.1 to 100 |
| Cc1nn(-c2cc(OC3CN(C(=O)N4N=CC[C@H]4c4cc(F)cc(F)c4)C3)c(F)cn2)c(C)c1S(=O)(=O)NC1CCCCC1 [compound 242, (S)—N-cyclohexyl-1-(4-((1-(5-(3,5-difluorophenyl)-4,5-dihydro-1H-pyrazole-1-carbonyl)azetidin-3-yl)oxy)-5-fluoropyridin-2-yl)-3,5-dimethyl-1H-pyrazole-4-sulfonamide] | 0.1 to 100 |
| Cc1nn(-c2cc(OC3CN(C(=O)N4N=CC[C@H]4c4cc(F)cc(F)c4)C3)c(F)cn2)c(C)c1CC(=O)N1CCC1 [compound 222, (S)-1-(azetidin-1-yl)-2-(1-(4-((1-(5-(3,5-difluorophenyl)-4,5-dihydro-1H-pyrazole-1-carbonyl)azetidin-3-yl)oxy)-5-fluoropyridin-2-yl)-3,5-dimethyl-1H-pyrazol-4-yl)ethan-1-one] | 0.1 to 100 |
| Cc1c(N(C)CC2CC2)nn(C)c1-c1cc(OC2CN(C(=O)N3N=CC[C@H]3c3cc(F)cc(F)c3)C2)c(F)cn1 [compound 164, (S)-(3-((2-(3-((cyclopropylmethyl)(methyl)amino)-1,4-dimethyl-1H-pyrazol-5-yl)-5-fluoropyridin-4-yl)oxy)azetidin-1-yl)(5-(3,5-difluorophenyl)-4,5-dihydro-1H-pyrazol-1-yl)methanone] | 0.1 to 100 |
| Cc1nn(-c2cc(OC3CN(C(=O)N4N=CC[C@H]4c4cc(F)cc(F)c4)C3)c(F)cn2)c(C)c1C(=O)N1CCOCC1 [compound 184, (S)-(5-(3,5-difluorophenyl)-4,5-dihydro-1H-pyrazol-1-yl)(3-((2-(3,5-dimethyl-4-(morpholine-4-carbonyl)-1H-pyrazol-1-yl)-5-fluoropyridin-4-yl)oxy)azetidin-1-yl)methanone] | 0.1 to 100 |
| CC(O)c1cnn(C)c1-c1cc(OC2CN(C(=O)N3N=CC[C@H]3c3cc(F)cc(F)c3)C2)c(F)cn1 (stereo partly drawn) [compound 179, ((S)-5-(3,5-difluorophenyl)-4,5-dihydro-1H-pyrazol-1-yl)(3-((5-fluoro-2-(4-(1-hydroxyethyl)-1-methyl-1H-pyrazol-5-yl)pyridin-4-yl)oxy)azetidin-1-yl)methanone] | 100 to 1000 |
